We go through 14 compounds from patent US20240209355A1, “NUCLEIC ACID BINDING PROTEIN FORMULATIONS AND USES THEREOF” (Spotlight Therapeutics, priority 2020, published 2024).

Data set [1] deals with primary human T cells. Briefly: Ex vivo editing by co-incubation in buffers with additives, loss of surface CD47 by flow cytometry. Format: cell-based. The note with it: for genome editing (percentage of edited T cells): 1 hour, increasing NaCl (185-400 mM) and/or glycerol (1-15% w/v); for combined effect of glycerol and sodium chloride on genome editing: e.g. 300 mM NaCl with 12.5% glycerol; for TAGE editing efficacy: additive in combination with NaCl. Here is the method: In this example, the impact of glycerol and salt on ex vivo editing by TAGE agents was assessed. Ribonucleoproteins were prepared from TAGE agents including 4×NLS-Cas9-2×NLS. A guide RNA targeting CD47 was associated with the respective TAGE agents to form ribonucleoproteins. […] The cells were washed after one hour to remove the additives and RNPs. The percentage of T cells that were edited under each condition was measured using a phenotypic readout detecting the loss of surface CD47 by flow cytometry. Additionally, the levels of live cells per mL 24 hours after co-incubation in the indicated buffer was assessed for each buffer condition.
In this example, the impact of salt and various polyols (e.g., sugar alcohols) or sugar on ex vivo editing by TAGE agents was assessed. Ribonucleoproteins were prepared from TAGE agents including 4×NLS-Cas9-2×NLS. A guide RNA targeting CD47 was associated with the respective TAGE agents to form ribonucleoproteins. […] Buffers having different salt concentrations (185 mM NaCl or 300 mM NaCl) and sugar alcohol or sugar concentrations ([…], 0.8 M, 1.2 M, 1.6 M, 2.0 M, or 2.4 M) were assessed. The cells were washed after one hour to remove additives and RNPs. The percentage of cells that were edited under each condition was measured using a phenotypic readout detecting the loss of surface CD47 by flow cytometry. Additionally, the levels of live cells per mL 24 hours after co-incubation in the indicated buffer was assessed for each buffer condition.
In this example, the impact of a cationic polymer (e.g., protamine) with or without glycerol on ex vivo editing by RNP TAGE agents was assessed. Ribonucleoproteins were prepared from TAGE agents including 4×NLS-Cas9-2×NLS or AsCas12a. A guide RNA targeting CD47 was associated with the respective TAGE agents to form ribonucleoproteins. […] The cells were washed after one hour to remove additives and RNPs. The percentage of T cells that were edited under each condition was measured using a phenotypic readout detecting the loss of surface CD47 by flow cytometry. Additionally, the levels of light scattering at 340 nm was assessed to detect aggregate formation. […]

A short description of data set [2]: Light scattering at 340 nm to detect aggregate formation with protamine. Type of data set: physicochemical. As to conditions: protamine in buffer. Here is the method: In this example, the impact of a cationic polymer (e.g., protamine) with or without glycerol on ex vivo editing by RNP TAGE agents was assessed. Ribonucleoproteins were prepared from TAGE agents including 4×NLS-Cas9-2×NLS or AsCas12a. A guide RNA targeting CD47 was associated with the respective TAGE agents to form ribonucleoproteins. […] The cells were washed after one hour to remove additives and RNPs. The percentage of T cells that were edited under each condition was measured using a phenotypic readout detecting the loss of surface CD47 by flow cytometry. Additionally, the levels of light scattering at 340 nm was assessed to detect aggregate formation.

For data set [3], the system named is primary human T cells. The data set is described as follows: Editing by TAGE after pre-incubation of cells with inhibitors, loss of surface CD47 by flow cytometry. Format: cell-based. As to conditions: 30 min pre-incubation; for editing of primary T cells by TAGE: DMA, EIPA 100 μM, Cyto D 20 μM, Lat A 10 μM, 3 μM TAGE26, 0.35 μM AB27-TAGE26 or AB2-TAGE26; for editing of primary T cells by an antibody TAGE: Dynasore 80 μM. Here is the method: Antibodies were conjugated to Cas9 using the SpyTag2/SpyCatcher system and a guide RNA targeting CD47 was associated with the respective TAGE agents to form RNPs. Primary human T cells were pre-incubated with the indicated drug for 30 minutes. Then, RNPs were added to the cells at the indicated concentration and co-incubated for an additional hour. The cells were washed after one hour to remove inhibitors and RNPs. The percentage of cells that were edited under each condition was measured using a phenotypic readout detecting the loss of surface CD47 by flow cytometry.
Each data point represents a biological replicate. For each group, the horizontal line represents the mean and the error bars represent the standard deviation of the mean. With respect to the descriptions in FIG. 18, NT guide is a TAGE with non-targeting guide RNA; MeOH is methanol (a control for DMA and EIPA; used at 0.5% v/v; DMSO is dimethyl sulfoxide, a control for Cyto D and Lat A (used at 1% v/v); DMA is 5-(N,N-dimethyl)-amiloride, an inhibitor of NHE1 (used at 100 μM); EIPA is 5-(N-ethyl-N-isopropyl)-amiloride, an inhibitor of NHE1, (used at 100 μM); Cyto D is cytochalasin D, an inhibitor of F-actin polymerization (used at 20 μM); and Lat A is latrunculin A, an inhibitor of F-actin polymerization (used at 10 μM).
Antibodies were conjugated to Cas9 using the SpyTag/SpyCatcher system and a guide RNA targeting CD47 was associated with the respective TAGE agents to form an RNP. Primary human T cells were pre-incubated with the indicated drug (nystatin or Dynasore) for 30 minutes. Then, RNPs were added to cells at the indicated concentration and co-incubated for an additional hour. The cells were washed after one hour to remove inhibitors and RNPs. The percentage of cells that were edited under each condition was measured using a phenotypic readout detecting the loss of surface CD47 by flow cytometry. Each data point represents a biological replicate. For each group, the horizontal line represents the mean and the error bars represent the standard deviation of the mean. NT guide stood for TAGE with non-targeting guide RNA. DMSO is dimethylsulfoxide, a control for nystatin and Dynasore, which was used at 2% v/v. Dynasore is an inhibitor of dynamin, which was used at 80 μM. Nystatin was used at 108 μM.
For orientation: In flow cytometry, cells or beads pass a laser one at a time.

The test system of data set [4] is T cells. The data set is described as follows: Ex vivo editing with chloroquine, loss of surface CD47 by flow cytometry. Type of data set: cell-based, human. The note with it: chloroquine 10, 30 or 100 μM for 24 hours after 1 hour RNP co-incubation with PBMCs, vs 0 μM. Here is the method: FIG. 9 graphically depicts the results of an ex vivo editing assay in which TAGE agents including Cas9-2×NLS:sgBFP, 4×NLS-Cas9-2×NLS, Cas9-2×NLS-SpyCatcher-4×NLS, or IL-2[-SpyTag]:Cas9-2×NLS-SpyCatcher-4×NLS were co-incubated with primary human T cells and assessed for editing in buffers including different levels of chloroquine (0 μM, 10 μM, 30 μM, or 100 μM). A guide RNA targeting CD47 was associated with the respective TAGE agents to form ribonucleoproteins, and the ribonucleoproteins were co-incubated with T cells to test for editing. Editing was measured using a phenotypic readout measuring the loss of surface CD47 using flow cytometry.
In this example, the impact of chloroquine on ex vivo editing by TAGE agents was assessed. RNP TAGE agents including Cas9-2×NLS:sgBFP, 4×NLS-Cas9-2×NLS, Cas9-2×NLS-SpyCatcher-4×NLS, or IL-2-SpyTag:Cas9-2×NLS-SpyCatcher-4×NLS. A guide RNA targeting CD47 (or a non-targeting control, sgBFP) was associated with the respective TAGE agents to form the ribonucleoproteins. The RNPs were co-incubated with PBMCs for 1 hour followed by incubation with 0 μM chloroquine, 10 μM chloroquine, 30 μM chloroquine, or 100 μM chloroquine for 24 hours. The percentage of T cells that were edited by each TAGE was measured using a phenotypic readout detecting the loss of surface CD47 by flow cytometry.

Data set [5] concerns dsDNA target. Briefly: In vitro DNA cleavage of TAGE agent RNPs with re-folded or unfolded sgRNA. Format: biochemical. The note with it: PBS, relative to Cas9(C80A)-2×NLS. Here is the method:
To assess DNA cleavage, 100 nM of each Cas9 RNP was incubated for 30 minutes at 37° C. with 100 nM of a dsDNA target. DNA cleavage was normalized to DNA cleavage achieved through incubation in buffer alone (i.e., untreated RNP). 1 μl of 20 mg/ml proteinase K was added to the reaction and incubated for 15 minutes at 50° C. The quenching reaction was held at 4° C. prior to separation on a Fragment Analyzer capillary electrophoresis (CE) instrument. 2 μl of the reaction was diluted with 22 μl of TE buffer and analyzed by capillary electrophoresis, per the manufacturer's recommendations. Cleavage reactions were run in triplicate, and background was subtracted from the band intensities. Percent cleavage was quantified with the following equation: % cleavage=(total mass cleaved product)/(total mass of substrate). The results are expressed as % cleavage relative to untreated RNP.
Next, the impact of re-folded gRNA on the in vitro DNA cleavage activity of TAGE agent RNPs was assessed.

Data set [6] has as its system primary human T cells. Briefly: Editing by antibody TAGE or CPP-TAGE in T cell media with sugar, sugar alcohol or salt additive, loss of surface CD47 by flow cytometry. Type of data set: cell-based.
Method: RNPs at the indicated concentration were co-incubated with primary human T cells for 1 hour in buffer including 0.5 M sucrose. The cells were washed after one hour to remove additives and RNPs. The editing percentage under each condition was measured using a phenotypic readout detecting the loss of surface CD47 by flow cytometry.
Five different TAGE agent were tested. […] The cells were washed after one hour to remove additives and RNPs. The percentage of cells that were edited under each condition was measured using a phenotypic readout detecting the loss of surface CD47 by flow cytometry. Each data point represents the mean of biological triplicates, and the error bars represent the standard deviation of the mean.
The cells were washed after one hour to remove additives and RNPs. The percentage of cells that were edited under each condition was measured using a phenotypic readout detecting the loss of surface CD47 by flow cytometry. Each data point represents a biological replicate. […]
RNP at the indicated concentration was co-incubated with primary human T cells for 1 hour in T cell media with no additive (Baseline) or in T cell media with 0.5 M sucrose. […] The percentage of cells that were edited under each condition was measured using a phenotypic readout detecting the loss of surface CD47 by flow cytometry. […]

Where “and” joins values, the source holds several entries; their conditions need not be identical. Equal entries are not always repeated.

Turning to protamine, the “editing by Cas12a” value in data set [1] (protamine in buffer) is “limited benefits for Cas12a editing”. In data set [1] (protamine in buffer, low glycerol concentrations), the “editing by 4×NLS-Cas9-2×NLS” value was “increased editing”. The “aggregation of Cas12a (340 nm light scattering)” value in data set [2] is “did not cause appreciable Cas12a aggregation”. Besides, the “aggregation of 4×NLS-Cas9-2×NLS (340 nm light scattering)” value in data set [2] (low glycerol concentrations) was “caused aggregation”. For the compound `[Cl-].[Na+]` [sodium chloride], in data set [1] (3.75 μM 4×NLS-Cas9-2×NLS RNP), the “genome editing (percentage of edited T cells)” value is on record as “increased genome editing in cells”; the “combined effect of glycerol and sodium chloride on genome editing” value was “synergistic effect on genome editing”. In the case of `C=C1[C@@H](C)[C@H]2[C@H](Cc3ccccc3)NC(=O)[C@]23[C@H](OC(C)=O)/C=C/[C@@](C)(O)C(=O)[C@@H](C)C/C=C/[C@H]3[C@@H]1O` [Cyto D, cytochalasin D], the “editing of primary T cells by TAGE” value in data set [3] is reported as “decreased”. Same read-out and setting: with `C/C1=C/C(=O)O[C@@H]2C[C@@H](CC[C@H](C)/C=C\C=C\CC1)O[C@@](O)([C@@H]1CSC(=O)N1)C2` [Lat A, latrunculin A] the entry was “decreased”. On to poly-glutamic acid [PGA], for which, in data set [1] (3.75 μM Cas9 or AsCas12a RNP, PGA 1500-5500 Da or 15,000 Da, also at lower concentrations), the editing by co-incubation entry is recorded as “inhibited editing by co-incubation”.

For `C[C@@H]1[C@H](O)[C@@H](C)/C=C/C=C/CC/C=C/C=C/C=C/C=C/C(O[C@H]2O[C@H](C)[C@@H](O)[C@H](N)[C@@H]2O)CC2O[C@](O)(CC(O)C(O)CCC(O)CC(O)CC(O)CC(=O)O[C@H]1C)CC(O)C2C(=O)O` (stereo partly shown) [nystatin], in data set [3] (nystatin 108 μM), the “editing by TAGE containing a non-targeting antibody (AB27-TAGE26)” value was “did not increase editing” and the “editing of primary T cells by an antibody TAGE” value was “increased”. For `CN(C)c1nc(N)c(C(=O)NC(=N)N)nc1Cl` [DMA, 5-(N,N-dimethyl)-amiloride], the “editing of primary T cells by TAGE” value in data set [3] is “increased”. Consider `OC[C@@H](O)[C@H](O)[C@@H](O)CO` [xylitol], for which the “percentage of edited cells” value in data set [1] (3.75 μM 4×NLS-Cas9-2×NLS RNP, 300 mM NaCl and ≥1 M xylitol) is reported as “over 50%”. Besides, the TAGE editing efficacy entry in data set [1] (3.75 μM 4×NLS-Cas9-2×NLS RNP) is given as “can increase TAGE editing efficacy”.

For `OCC(O)CO` [glycerol], in data set [1] (3.75 μM 4×NLS-Cas9-2×NLS RNP), the “genome editing (percentage of edited T cells)” value is reported as “increased genome editing in cells”; the “combined effect of glycerol and sodium chloride on genome editing” value is “synergistic effect on genome editing”; the TAGE editing efficacy result is “can increase TAGE editing efficacy”. In data set [1] (human T cells, depending on the TAGE and the salt concentration), the “glycerol concentration at peak editing ex vivo” value is 7-10% and 15-16%. On to `CCN(CC)CCCC(C)Nc1ccnc2cc(Cl)ccc12` (stereo not shown) [chloroquine], for which the “editing of T cells by TAGE RNPs” value in data set [4] is “increased editing of T cells”.

On to `O=C(N/N=C/c1ccc(O)c(O)c1)c1cc2ccccc2cc1O` [dynasore, Dynasore], for which the “editing of primary T cells by an antibody TAGE” value in data set [3] (nystatin 108 μM) was “not increased”. For the compound `CCN(c1nc(N)c(C(=O)N=C(N)N)nc1Cl)C(C)C` [EIPA, 5-(N-ethyl-N-isopropyl)-amiloride], the “editing of primary T cells by TAGE” value in data set [3] was “increased”. On to “4×NLS-Cas9(C80A)-2×NLS: TAGE agent: Cas9(C80A) with four N-terminal and two C-terminal NLS”, for which the DNA cleavage activity result in data set [5] is recorded as “reduced activity in PBS”. Consider `OC[C@H]1O[C@@](CO)(O[C@H]2O[C@H](CO)[C@@H](O)[C@H](O)[C@H]2O)[C@@H](O)[C@@H]1O` [sucrose], for which the TAGE editing efficacy entry in data set [1] (3.75 μM 4×NLS-Cas9-2×NLS RNP) is reported as “can increase TAGE editing efficacy”. Also, in data set [6] (0.5 M sucrose), the “lowest TAGE concentration at which editing is enabled” value was determined as 0.7 nM. The “effect of additive on editing” value in data set [6] (0.5 M sucrose as formulation additive) is “improves editing”.
